Measurements taken from patent publication US7897765B2, “Therapeutic compounds and uses thereof” (Elixir Pharmaceuticals, Inc., priority 2003, dated 2011).

What follows are compounds tested against GHS-R (Homo sapiens, UniProt Q92847) (assay: cell based assay of GHS-R antagonist/agonist activity). Details: GHS-R antagonist Ki and/or agonist EC50 class.
Chain of GHS-R (Q92847 whole entry, species assumed): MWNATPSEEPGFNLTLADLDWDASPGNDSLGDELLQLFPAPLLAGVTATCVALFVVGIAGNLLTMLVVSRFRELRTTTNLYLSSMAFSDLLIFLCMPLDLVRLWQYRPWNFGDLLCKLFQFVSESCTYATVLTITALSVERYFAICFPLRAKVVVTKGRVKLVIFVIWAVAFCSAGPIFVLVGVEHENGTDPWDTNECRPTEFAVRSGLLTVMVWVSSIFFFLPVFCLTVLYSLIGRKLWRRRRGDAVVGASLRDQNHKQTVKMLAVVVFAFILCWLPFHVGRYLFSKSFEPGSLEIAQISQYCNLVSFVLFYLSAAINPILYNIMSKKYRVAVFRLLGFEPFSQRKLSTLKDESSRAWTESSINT
Description: Cell-Based Activity Assays. For example, the ability of the compound to modulate accumulation of a second messenger signaling component downstream of GHS-R can be evaluated. For example, inositol phosphates (IP), as a result of Gq signaling in a mammalian cell, e.g., a Cos-7 cells. Other tissue culture cells, Xenopus oocytes, and primary cells can also be used.
Phosphatidylinositol turnover assay. One day after transfection COS-7 cells are incubated for 24 hours with 5 μCi of [^3H]-myo-inositol in 1 ml medium supplemented with 10% fetal calf serum, 2 mM glutamine and 0.01 mg/ml gentamicin per well. Cells are then washed twice in buffer, 20 mM HEPES, pH 7.4, supplemented with 140 mM NaCl, 5 mM KCl, 1 mM MgSO4, 1 mM CaCl2, mM glucose, 0.05% (w/v) bovine serum; and incubated in 0.5 ml buffer supplemented with 10 mM LiCl at 37° C. for 30 min. For some assays, it is also useful to incubate the cells with adenosine deaminase ADA (200 U/mg, Boehringer Mannheim, Germany) for 30 min in a concentration of 1 U/ml.
After incubation with the compound of interest for 45 min at 37° C., cells are extracted with 10% ice-cold perchloric acid and placed on ice for 30 min. The resulting supernatants are neutralized with KOH in HEPES buffer, and [^3H]-inositol phosphate is purified on Bio-Rad AG 1-X8 anion exchange resin as described. Assays can be run in duplicate, triplicate, etc.
Other second messenger assays. Another second messenger that can be evaluated is Ca^2+. Ca^2+ mobilization can be evaluated using a calcium sensitive detector, such as aequorin protein or a dye, e.g., FURA-2. In an exemplary assay, calcium mobilization is evaluated in a recombinant cell that expresses GHS-R and aequorin.
Gene expression assay. HEK293 cells (30 000 cells/well) seeded in 96-well plates are transiently transfected with a mixture of pFA2-CREB and pFR-Luc reporter plasmid (PathDetect™ CREB trans-Reporting System, Stratagene) and nucleic acid encoding GHS. One day after transfection, cells are treated with the compound of interest in an assay volume of 100 μl medium for 5 hrs. After treatment, cells are cultured in low serum (2.5%). After the incubation period, the assay is ended by washing the cells twice with PBS and adding 100 μl luciferase assay reagent (LucLite™, Packard Bioscience). Luminescence is measured (e.g., as relative light units (RLU)) using in a luminometer such as the TopCounter™ (Packard Bioscience) for 5 sec.
IC50 and EC50 values can be determined by nonlinear regression, e.g., using the Prism 3.0 software (GraphPad Software, San Diego).
With `CCN1CCC=C(C(=O)N[C@H](COCc2ccccc2)C(=O)N2CCC3(CC2)CN(S(C)(=O)=O)c2ccccc23)C1.Cl` [Compound 2] the Activity was “D (D refers to a compound having antagonist activity with Ki, <100 nM and agonist activity with EC50<100 nM in a cell-based assay)”.
With `CN1CCC(C(=O)N[C@H](COCc2ccccc2)C(=O)N2CCC3(C=Cc4ccccc43)CC2)CC1` [Compound 3] the Activity was “A (A refers to a compound having antagonist activity with Ki<100 nM in a cell based assay)”.
In the case of `CS(=O)(=O)N1CC2(CCN(C(=O)[C@@H](COCc3ccccc3)NC(=O)C3CCCNC3)CC2)c2ccccc21` (stereo partly shown) [Compound 4], the Activity was “D (D refers to a compound having antagonist activity with Ki, <100 nM and agonist activity with EC50<100 nM in a cell-based assay)”.
`CN(C)C[C@H]1CCC[C@@H](CNC(=O)[C@@H](Cc2c[nH]c3ccccc23)NC(=O)N2CCC3(C=Cc4ccccc43)CC2)C1` [Compound 5] was tested, and the Activity was “A (A refers to a compound having antagonist activity with Ki<100 nM in a cell based assay)”.
For `CN(C)Cc1cccc(C(=O)N[C@H](COCc2ccccc2)C(=O)N2CCC3(CC2)CN(S(C)(=O)=O)c2ccccc23)c1` [Compound 6], the Activity was “A (A refers to a compound having antagonist activity with Ki<100 nM in a cell based assay)”.
With `CN1CCC=C(C(=O)N[C@H](COCc2ccccc2)C(=O)N2CCC3(CC2)CN(S(C)(=O)=O)c2ccccc23)C1` [Compound 7] the Activity was “D (D refers to a compound having antagonist activity with Ki, <100 nM and agonist activity with EC50<100 nM in a cell-based assay)”.
`CCN(CC)CCS(=O)(=O)N[C@H](COCc1ccccc1)C(=O)N1CCC2(CC1)CN(S(C)(=O)=O)c1ccccc12` [Compound 8] was tested, and the Activity was “D (D refers to a compound having antagonist activity with Ki, <100 nM and agonist activity with EC50<100 nM in a cell-based assay)”.
With `CC(C)(C)OC(=O)N[C@H](COCc1ccccc1)C(=O)N1CCC2(CC1)CN(S(C)(=O)=O)c1ccccc12` [Compound 9] the Activity was “A (A refers to a compound having antagonist activity with Ki<100 nM in a cell based assay)”.
For `CN(C)C[C@H]1CCC[C@@H](C(=O)N[C@H](COCc2ccccc2)C(=O)N2CCC3(CC2)CN(S(C)(=O)=O)c2ccccc23)C1` [Compound 10], the Activity was “D (D refers to a compound having antagonist activity with Ki, <100 nM and agonist activity with EC50<100 nM in a cell-based assay)”.
With `CN1CC=C[C@H]1C(=O)N[C@H](COCc1ccccc1)C(=O)N1CCC2(CC1)CN(S(C)(=O)=O)c1ccccc12` [Compound 11] the Activity was “A (A refers to a compound having antagonist activity with Ki<100 nM in a cell based assay)”.
For `CC(C)N1CCC=C(C(=O)N[C@H](COCc2ccccc2)C(=O)N2CCC3(CC2)CN(S(C)(=O)=O)c2ccccc23)C1` [Compound 12], the Activity was “A (A refers to a compound having antagonist activity with Ki<100 nM in a cell based assay)”.
`CN1CCCC(C(=O)N[C@H](COCc2ccccc2)C(=O)N2CCC3(CC2)CN(S(C)(=O)=O)c2ccccc23)C1` (stereo partly shown) [Compound 13] was tested, and the Activity was “A (A refers to a compound having antagonist activity with Ki<100 nM in a cell based assay)”.
For `C[C@H](C(=O)N[C@H](COCc1ccccc1)C(=O)N1CCC2(CC1)CN(S(C)(=O)=O)c1ccccc12)N(C)C` [Compound 14], the Activity was “A (A refers to a compound having antagonist activity with Ki<100 nM in a cell based assay)”.
`CCN(C)CCC(=O)N[C@H](COCc1ccccc1)C(=O)N1CCC2(CC1)CN(S(C)(=O)=O)c1ccccc12` [Compound 15] was tested, and the Activity was “C (C refers to a compound having antagonist activity of Ki>100 nM and <1500 nM in a cell based assay)”.
With `CS(=O)(=O)N1CC2(CCN(C(=O)[C@@H](COCc3ccccc3)NC(=O)C3=CCNCC3)CC2)c2ccccc21` [Compound 16] the Activity was “C (C refers to a compound having antagonist activity of Ki>100 nM and <1500 nM in a cell based assay)”.
In the case of `CC(C)(C)NC(=O)N[C@H](COCc1ccccc1)C(=O)N1CCC2(CC1)CN(S(C)(=O)=O)c1ccccc12` [Compound 17], the Activity was “C (C refers to a compound having antagonist activity of Ki>100 nM and <1500 nM in a cell based assay)”.
